Reference: patent US9290507B2, “B-RAF kinase inhibitors” (Boehringer Ingelheim International GmbH, priority 2010, dated 2016)

Target: B-Raf (V600E)-kinase (Homo sapiens (Human), UniProt P15056, V600E)
Assay: Kinase test B-Raf (V600E)
Format: biochemical
Details: 1 h preincubation, 250 μM ATP
Procedure: In a dilution series 10 μL/well of test substance solution are placed in a multiwell plate. The dilution series is selected so that generally a range of concentrations of 2 μM to 0.119 nM or 0.017 nM is covered. If necessary the initial concentration of 2 μM is changed to 50 μM, 10 μM or 0.4 μM or 0.2857 μM and further dilution is carried out accordingly. The final concentration of DMSO is 5%. 10 μL/well of the B-Raf (V600E)-kinase solution are pipetted in (containing 0.5 ng B-Raf (V600E)-kinase (e.g. from Upstate) in 20 mM Tris-HCl pH 7.5, 0.1 mM EDTA, 0.1 mM EGTA, 0.286 mM sodium orthovanadate, 10% glycerol, 1 mg/mL bovine serum albumin, 1 mM dithiothreitol) and the mixture is incubated for 1 h at RT under with shaking. The kinase reaction is started by the addition of 20 μL/well ATP solution [final concentration: 250 μM ATP, 30 mM Tris-HCl pH 7.5, 0.02% Brij, 0.2 mM sodium orthovanadate, 10 mM magnesium acetate, 0.1 mM EGTA, phosphatase cocktail (Sigma, #P2850, dilution recommended by the manufacturer)] and 10 μL/well MEK1 solution [containing 50 ng biotinylated MEK1 (prepared from purified MEK1 according to standard procedure, e.g. with EZ-Link Sulpho-NHS-LC-Biotin reagent, Pierce, #21335)] and carried out for 60 min at RT with constant shaking. The reaction is stopped by the addition of 12 μL/well of a 100 mM EDTA solution and incubation is continued for a further 5 min. 55 μL/well of the reaction solution are transferred into a streptavidin-coated plate (e.g. Streptawell HighBond, Roche, #11989685001) and shaken gently for 1 h at RT, in order to bind biotinylated MEK1 to the plate. After elimination of the liquid the plate is washed five times with 200 μL/well of 1×PBS and 100 μL/well solution of primary antibody plus europium-labelled secondary antibody [Anti Phospho-MEK (Ser217/221), Cell Signaling, #9121 and Eu-N1 labelled goat-anti-rabbit antibody, Perkin Elmer, #AD0105] is added, the primary antibody is diluted 1:2000 and the secondary antibody is diluted to 0.4-0.5 μg/mL in Delfia Assay Buffer (Perkin Elmer, #1244-111). After 1 h shaking at RT the solution is poured away and washed five times with 200 μL/well Delfia Wash Buffer (Perkin Elmer, #4010-0010/#1244-114). After the addition of 200 μL/well Enhancement Solution (Perkin Elmer, #4001-0010/#1244-105) the mixture is shaken for 10 min at RT and then measured in a Wallac Victor using the program “Delfia Time Resolved Fluorescence (Europium)”. IC50 values are obtained from these dosage-activity curves using a software program (GraphPadPrizm).

B-Raf (V600E)-kinase, sequence (P15056 whole entry V600E): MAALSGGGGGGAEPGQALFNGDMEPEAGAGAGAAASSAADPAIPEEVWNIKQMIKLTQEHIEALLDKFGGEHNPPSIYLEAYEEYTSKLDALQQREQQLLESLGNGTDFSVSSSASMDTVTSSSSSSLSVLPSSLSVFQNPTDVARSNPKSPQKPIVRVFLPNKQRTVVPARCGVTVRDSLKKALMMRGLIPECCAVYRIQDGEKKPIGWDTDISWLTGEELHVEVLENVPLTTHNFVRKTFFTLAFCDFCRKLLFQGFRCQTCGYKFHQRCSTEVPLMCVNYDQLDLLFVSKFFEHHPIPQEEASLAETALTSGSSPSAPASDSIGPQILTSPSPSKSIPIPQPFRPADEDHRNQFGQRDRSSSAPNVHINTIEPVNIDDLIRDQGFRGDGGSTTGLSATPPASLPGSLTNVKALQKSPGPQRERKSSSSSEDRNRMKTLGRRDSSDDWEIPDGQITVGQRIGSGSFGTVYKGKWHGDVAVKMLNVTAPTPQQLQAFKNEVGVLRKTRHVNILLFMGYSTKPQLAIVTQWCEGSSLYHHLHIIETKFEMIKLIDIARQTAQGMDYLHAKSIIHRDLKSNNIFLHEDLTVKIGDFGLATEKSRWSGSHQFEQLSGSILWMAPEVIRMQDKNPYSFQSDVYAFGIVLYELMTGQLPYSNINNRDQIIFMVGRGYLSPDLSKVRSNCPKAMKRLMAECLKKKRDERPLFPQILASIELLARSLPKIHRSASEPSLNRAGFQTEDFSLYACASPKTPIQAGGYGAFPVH

IC50 [µM] | SMILES
0.009 | CCCN1CCN(c2cncc(-c3cn(-c4cc(NC(=O)c5ccc(C(C)(C)C)s5)ccc4C)nn3)c2)CC1 [II-25]
0.008 | CCN1CCN(c2cncc(-c3cn(-c4cc(NC(=O)c5ccc(C(C)(C)C)s5)ccc4C)nn3)c2)CC1 [II-27]
0.01 | CCOCCN1CCN(c2cncc(-c3cn(-c4cc(NC(=O)c5ccc(C(C)(C)C)s5)ccc4C)nn3)c2)CC1 [II-28]
0.01 | Cc1ccc(NC(=O)c2ccc(C(C)(C)C)s2)cc1-n1cc(-c2cncc(N3CCN(C(C)(C)C)CC3)c2)nn1 [II-29]
0.008 | Cc1ccc(NC(=O)c2ccc(C(C)(C)C)s2)cc1-n1cc(-c2cncc(N3CCN(CC4CC4)CC3)c2)nn1 [II-31]
0.031 | Cc1ccc(NC(=O)c2cc(C)n(C(C)(C)C)n2)cc1-n1cc(-c2cncc(N3CCN(C4CC4)CC3)c2)nn1 [II-34]
0.01 | CCN1CCN(c2cncc(-c3cn(-c4cc(NC(=O)c5cc(C)n(C(C)(C)C)n5)ccc4C)nn3)c2)CC1 [II-35]
0.013 | Cc1ccc(NC(=O)c2cc(C)n(C(C)(C)C)n2)cc1-n1cc(-c2cncc(N3CCN(C(C)C)CC3)c2)nn1 [II-36]
0.011 | CCCN1CCN(c2cncc(-c3cn(-c4cc(NC(=O)c5cc(C)n(C(C)(C)C)n5)ccc4C)nn3)c2)CC1 [II-37]
0.011 | Cc1ccc(NC(=O)c2cc(C)n(C(C)(C)C)n2)cc1-n1cc(-c2cncc(N3CCN(C)CC3)c2)nn1 [II-38]
0.009 | Cc1ccc(NC(=O)c2cc(C)n(C(C)(C)C)n2)cc1-n1cc(-c2cncc(N3CCCN(C)CC3)c2)nn1 [II-39]
0.011 | Cc1ccc(NC(=O)c2cc(CNC(C)(C)C)c(C(C)(C)C)o2)cc1-n1cc(-c2cncc(N3CCOCC3)c2)nn1 [II-40]
0.014 | Cc1ccc(NC(=O)c2cc(CNC3CCN(C)CC3)c(C(C)(C)C)o2)cc1-n1cc(-c2cncc(N3CCOCC3)c2)nn1 [II-41]
0.016 | Cc1ccc(NC(=O)c2cc(CN3CCN(C)CC3)c(C(C)(C)C)o2)cc1-n1cc(-c2cncc(N3CCOCC3)c2)nn1 [II-42]
0.036 | Cc1ccc(NC(=O)c2cc(CN(C)CCN(C)C)c(C(C)(C)C)o2)cc1-n1cc(-c2cncc(N3CCOCC3)c2)nn1 [II-43]
0.011 | Cc1ccc(NC(=O)c2cc(CN(C)C)c(C(C)(C)C)o2)cc1-n1cc(-c2cncc(N3CCOCC3)c2)nn1 [II-44]
0.01 | Cc1ccc(NC(=O)c2cc(CNCCN(C)C)c(C(C)(C)C)o2)cc1-n1cc(-c2cncc(N3CCOCC3)c2)nn1 [II-45]
